Assay results taken from US11834434B2, “Substituted 2-heteroaryloxypyridines and salts thereof and their use as herbicidal agents” (Bayer Aktiengesellschaft, priority 2018, dated 2023).

Columns and labels:
Format in all cases: in vivo
Setaria viridis (SETVI) = assay: Pre-emergence herbicidal action against Setaria viridis; conditions: 1280 g/ha; scored visually after about 3 weeks vs untreated controls; 100% = plants have died, 0% = like control plants
From the text: (§1) Seeds of mono- and dicotyledonous weed plants were placed in plastic pots in sandy loam soil (doubly sown with in each case one species of mono- or dicotyledonous weed plants per pot) and covered with soil. The compounds of the invention, formulated in the form of wettable powders (WP) or as emulsion concentrates (EC), were then applied onto the surface of the covering soil as aqueous suspension or emulsion with addition of 0.5% additive at a water application rate of 600 liters per hectare (converted). After the treatment, the pots were placed in a greenhouse and kept under good growth conditions for the test plants. After about 3 weeks, the effect of the preparations was scored visually in comparison with untreated controls as percentages. For example, 100% activity=the plants have died, 0% activity=like control plants. Tables C1 to C8 below show the effects of selected compounds of the general formula (I) according to Table 1 on various harmful plants and an application rate corresponding to 1280 g/ha, which were obtained by the experimental procedure mentioned above.

Lolium rigidum (LOLRI) = assay: Pre-emergence herbicidal action against Lolium rigidum; conditions: 1280 g/ha; scored visually after about 3 weeks vs untreated controls; 100% = plants have died, 0% = like control plants
From the text: as §1

[1] = tested on: Echinochloa crus-galli (ECHCG); assay: Post-emergence herbicidal action against Echinochloa crus-galli; conditions: 1280 g/ha; rated visually after about 3 weeks vs untreated controls; 100% = plants have died, 0% = like control plants
Procedure: (§2) Seeds of mono- and dicotyledonous weed plants were placed in plastic pots in sandy loam soil (doubly sown with in each case one species of mono- or dicotyledonous weed plants per pot), covered with soil and cultivated in a greenhouse under controlled growth conditions. 2 to 3 weeks after sowing, the test plants were treated at the one-leaf stage. The compounds of the invention, formulated in the form of wettable powders (WP) or as emulsion concentrates (EC), were applied onto the green parts of the plants as aqueous suspension or emulsion with addition of 0.5% additive at a water application rate of 600 liters per hectare (converted). After the test plants had been kept in the greenhouse under optimum growth conditions for about 3 weeks, the activity of the preparations was rated visually in comparison to untreated controls. For example, 100% activity=the plants have died, 0% activity=like control plants. Tables B1 to B8 below show the effects of selected compounds of the general formula (I) according to Table 1 on various harmful plants and an application rate corresponding to 1280 g/ha, which were obtained by the experimental procedure mentioned above.

Poa annua (POAAN) [2] = assay: Pre-emergence herbicidal action against Poa annua; conditions: 1280 g/ha; scored visually after about 3 weeks vs untreated controls; 100% = plants have died, 0% = like control plants
From the text: as §1

[3] = tested on: Amaranthus retroflexus (AMARE); assay: Post-emergence herbicidal action against Amaranthus retroflexus; conditions: 1280 g/ha; rated visually after about 3 weeks vs untreated controls; 100% = plants have died, 0% = like control plants
Procedure: as §2

[4] = tested on: Matricaria inodora (MATIN); assay: Post-emergence herbicidal action against Matricaria inodora; conditions: 1280 g/ha; rated visually after about 3 weeks vs untreated controls; 100% = plants have died, 0% = like control plants; column head prints STEME
Procedure: as §2

[5] = tested on: Echinochloa crus-galli (ECHCG); assay: Pre-emergence herbicidal action against Echinochloa crus-galli; conditions: 1280 g/ha; scored visually after about 3 weeks vs untreated controls; 100% = plants have died, 0% = like control plants
From the text: as §1

Stellaria media (STEME) [6] = assay: Post-emergence herbicidal action against Stellaria media; conditions: 1280 g/ha; rated visually after about 3 weeks vs untreated controls; 100% = plants have died, 0% = like control plants
Procedure: as §2

Stellaria media (STEME) [7] = assay: Pre-emergence herbicidal action against Stellaria media; conditions: 1280 g/ha; scored visually after about 3 weeks vs untreated controls; 100% = plants have died, 0% = like control plants
From the text: as §1

[8] = tested on: Amaranthus retroflexus (AMARE); assay: Pre-emergence herbicidal action against Amaranthus retroflexus; conditions: 1280 g/ha; scored visually after about 3 weeks vs untreated controls; 100% = plants have died, 0% = like control plants
From the text: as §1

[9] = tested on: Abutilon theophrasti (ABUTH); assay: Post-emergence herbicidal action against Abutilon theophrasti; conditions: 1280 g/ha; rated visually after about 3 weeks vs untreated controls; 100% = plants have died, 0% = like control plants
Procedure: as §2

[10] = tested on: Abutilon theophrasti (ABUTH); assay: Pre-emergence herbicidal action against Abutilon theophrasti; conditions: 1280 g/ha; scored visually after about 3 weeks vs untreated controls; 100% = plants have died, 0% = like control plants
From the text: as §1

[11] = tested on: Matricaria inodora (MATIN); assay: Pre-emergence herbicidal action against Matricaria inodora; conditions: 1280 g/ha; scored visually after about 3 weeks vs untreated controls; 100% = plants have died, 0% = like control plants
From the text: as §1

Poa annua (POAAN) [12] = assay: Post-emergence herbicidal action against Poa annua; conditions: 1280 g/ha; rated visually after about 3 weeks vs untreated controls; 100% = plants have died, 0% = like control plants
Procedure: as §2

Poa annua (POAAN) [13] = assay: Early post-emergence herbicidal action against Poa annua; conditions: 1900 g/ha; scored visually 9 to 12 days after treatment vs untreated controls; 100% = plants have died, 0% = like control plants
Procedure: (§3) Seeds of monocotyledonous or dicotyledonous weed plants were placed in 96-well microtiter plates in quartz sand and grown in a climatized chamber under controlled growth conditions. 5 to 7 days after sowing, the test plants were treated at the cotyledon stage. The compounds according to the invention, formulated in the form of emulsion concentrates (EC), were applied with a water application rate of the equivalent of 2200 liters per hectare. After the test plants had been left to stand in the climatized chamber for 9 to 12 days under optimum growth conditions, the effect of the preparations was scored visually in comparison to untreated controls. For example, 100% activity=the plants have died, 0% activity=like control plants. Tables A1 to A2 below show the effects of selected compounds of the general formula (I) according to Table 1 on various harmful plants and an application rate corresponding to 1,900 g/ha, which were obtained by the experimental procedure mentioned above.

Agrostis tenuis (AGSTE) = assay: Early post-emergence herbicidal action against Agrostis tenuis; conditions: 1900 g/ha; scored visually 9 to 12 days after treatment vs untreated controls; 100% = plants have died, 0% = like control plants
Procedure: as §3

Structure (SMILES) | Pre-emergence action against Setaria viridis (SETVI) (Setaria viridis (SETVI)) [%] | Pre-emergence action against Lolium rigidum (LOLRI) (Lolium rigidum (LOLRI)) [%] | Post-emergence action against Echinochloa crus-galli (ECHCG) [1] [%] | Pre-emergence action against Poa annua (POAAN) (Poa annua (POAAN) [2]) [%] | Post-emergence action against Amaranthus retroflexus (AMARE) [3] [%] | Post-emergence action against Matricaria inodora (MATIN) [4] [%] | Pre-emergence action against Echinochloa crus-galli (ECHCG) [5] [%] | Post-emergence action against Stellaria media (STEME) (Stellaria media (STEME) [6]) [%] | Pre-emergence action against Stellaria media (STEME) (Stellaria media (STEME) [7]) [%] | Pre-emergence action against Amaranthus retroflexus (AMARE) [8] [%] | Post-emergence action against Abutilon theophrasti (ABUTH) [9] [%] | Pre-emergence action against Abutilon theophrasti (ABUTH) [10] [%] | Pre-emergence action against Matricaria inodora (MATIN) [11] [%] | Post-emergence action against Poa annua (POAAN) (Poa annua (POAAN) [12]) [%] | Early post-emergence action against Poa annua (POAAN) (Poa annua (POAAN) [13]) [%] | Early post-emergence action against Agrostis tenuis (AGSTE) (Agrostis tenuis (AGSTE)) [%]
Cc1cc(C)c(Cc2ccc(F)cc2F)c(Oc2ncc(F)cn2)n1 [Example I-481] | 100 | 100 | 100 | 100 | 100 | 90 | 100 | 100 | 100 | 100 | 100 | 100 | 100 | 100 | – | –
Cc1ccc(Oc2ccccc2)c(Oc2ncc(Cl)cn2)n1 [Example I-500] | 100 | 100 | 90 | 100 | – | – | 100 | 100 | 100 | 100 | 100 | 100 | 90 | 100 | – | –
COc1cc(Cc2c(C)cc(C)nc2Oc2ncc(F)cn2)ccc1F [Example I-487] | 100 | 100 | 100 | 100 | 100 | 100 | 100 | 100 | 100 | 100 | 100 | 100 | 100 | 100 | – | –
Cc1ccnc(Oc2ncccn2)c1Sc1ccccc1 [Example I-216, 2-[(4-Methyl-3-phenylsulfanyl-2-pyridyl)oxy]pyrimidine] | 100 | 90 | 100 | 100 | 100 | – | 100 | 100 | 100 | 100 | 100 | 100 | 100 | 100 | – | –
Cc1cc(C)c(Oc2ncc(F)cn2)c(Oc2ncc(F)cn2)n1 [Example I-595] | – | – | – | – | – | – | – | – | – | – | – | – | – | – | 100 | 100
